# Key:
# [1] = test system: MI-induced heart failure rats; test: Cardiovascular effects of Example 56.0 and captopril/losartan on MI-induced heart failure rats; type: in vivo, rat; details: captopril alone, acute settings, heart failure rats in vivo
# Experimental: Cardiovascular Effects of Example 56.0 and Captopril/Losartan on MI-Induced Heart Failure Rats
# Male Lewis rats at 2-3 months of age were used for the study. MI was induced by ligation of the LAD. Echocardiography (Echo) was performed at one-week post-MI on rats for verification of infarct size and animal enrollment Animals with ejection fractions more than 40% or no visible infarct in myocardium were excluded from the study. All eligible MI rats were randomly divided into 3 groups: 1) those treated with vehicle; 2) those treated with losartan (0.5 g/L in drink water); and 3) those treated with captopril (0.5 g/L in drink water). Treatments were initiated approximately five weeks post-MI and animals were continuously treated with losartan and captopril in drinking water up to 15 days prior to being assigned into each subgroup. These subgroup groups included the following: 1) cohort treated with vehicle; 2) cohort treated with Example 56.0 at various doses; 3) cohort treated only with losartan; 4) cohort treated with losartan and Example 56.0 at various doses; 5) cohort treated only with captopril; and 6) cohort treated with captopril and Example 56.0 at various doses. A Millar PV catheter was inserted into the right common carotid artery and then advanced to the left ventricle (LV) for cardiac hemodynamic assessment and the peripheral arterial pressure was also monitored by a pressure transducer via a femoral artery access in all rats. Following hemodynamic stabilization, baseline steady-state data was acquired Animals in any Example 56 treated group received intravenous infusion of Example 56.0 in a dose-escalated fashion during cardiac hemodynamic assessment. Blood was drawn for actual PK exposure to derive a PK/PD profile.
# [2] = test system: ex vivo naive Sprague Dawley rat hearts; test: Langendorff isolated perfused rat heart (ex vivo); details: Langendorff apparatus; for left ventricular dP/dtmax (cardiac contractility) / left ventricular dP/dtmin (cardiac relaxation): isolated perfused rat hearts, compared with vehicle / control (DMSO)
# Excerpt: FIG. 1A is a graph of left ventricular dP/dtmax as a function of concentration of Example 210.0 compared with vehicle in ex vivo naive Sprague Dawley rat hearts obtained using the Langendorff apparatus.
# FIG. 1B is a graph of left ventricular dP/dtmin as a function of concentration of Example 210.0 compared with vehicle in ex vivo naive Sprague Dawley rat hearts obtained using the Langendorff apparatus.
# FIG. 2A is a graph of left ventricular dP/dtmax as a function of concentration of Example 51.0 compared with vehicle in ex vivo naive Sprague Dawley rat hearts obtained using the Langendorff apparatus.
# FIG. 2B is a graph of left ventricular dP/dtmin as a function of concentration of Example 51.0 compared with vehicle in ex vivo naive Sprague Dawley rat hearts obtained using the Langendorff apparatus.
# isolated rat heart = test: Isolated rat heart assay with APJ agonist in the presence or absence of AT1R blocker losartan; details: losartan alone compared to control (DMSO)
# Excerpt: Evidence for Blockade of AT1R Signaling Enhances the APJ Receptor Signaling Using Ex-Vivo (Isolated Rat Heart Assay) and In Vivo (Myocardial Infraction (MI)-Induced Heart Failure Model)
# Naive Sprague Dawley® SD rats were anaesthetized and hearts were excised followed by cannulation in the Langendorff apparatus via aorta. The heart was perfused retrograde with modified oxygenated Krebs-Henseleit buffer. The pressure of the solution causes the aortic valve to shut and the perfusate was then forced into the ostium and the coronary vessels. This allowed the heart to beat for several hours. A balloon was inserted into the left ventricle to measure dp/dtmax as an index of cardiac contractility. The APJ agonist (Example 56.0) was perfused in the presence or absence of AT1R blocker losartan.
# [3] = test system: isolated perfused rat hearts; test: Ex vivo isolated perfused rat heart (Langendorff) assay, load independent inotropic/lusitropic effects; details: percent change over vehicle; for Isolated Heart Assay dP/dtmax (%): contractility; for Isolated Heart Assay dP/dtmin (%): relaxation
# Excerpt: Evidence for Load Independent Inotropic Effects with APJ Agonists Using Ex Vivo Assay (Isolated Perfused Rat Hearts)
# Naive Sprague Dawley® SD rats (Harlan laboratories (Livermore, Calif. USA)) were anaesthetized and hearts were excised followed by cannulation in the Langendorff apparatus (Harvard apparatus, Holliston, Mass. USA) via aorta. The heart was perfused retrograde with modified oxygenated Krebs-Henseleit buffer (Skrzypiec-Spring M et al., (2007) J. Pharmacol Toxicol Methods 55: 113-126). The pressure of the solution causes the aortic valve to shut and the perfusate is then forced into the ostium and the coronary vessels. This allows the heart to beat for several hours. A balloon was inserted into the left ventricle (LV) to measure dP/dtmax (derivative of left ventricular pressure) as an index of cardiac contractility. The APJ agonist was perfused constantly in a dose dependent manner into the heart to examine cardiac contractility.
# Example 210.0 was infused at different concentrations and load independent contractility was measured by index of LV dP/dtmax and the results are expressed as a percent change over vehicle. […] Example 210.0 was infused at different concentrations and load independent lusitropic effect (relaxation) was measured by index of LV dP/dtmin where results are expressed as percent change over vehicle. […] Example 51.0 was infused at different concentrations and load independent contractility was measured by index of LV dP/dtmax and the results are expressed as a percent change over vehicle. […] Example 51.0 was infused at different concentrations and load independent lusitropic effect (relaxation) was measured by index of LV dP/dtmin where results are expressed as percent change over vehicle.
# APJ receptor = APJ receptor (Homo sapiens (Human), UniProt P35414); test: [35S]GTPγS binding assay on membranes from CHO cells stably expressing human APJ receptor; type: biochemical; details: membranes of CHO cells stably expressing human APJ receptor, means of several independent experiments, read-out: Activity hAPJ SPA EC50 IP
# Sequence of APJ receptor (P35414 whole entry): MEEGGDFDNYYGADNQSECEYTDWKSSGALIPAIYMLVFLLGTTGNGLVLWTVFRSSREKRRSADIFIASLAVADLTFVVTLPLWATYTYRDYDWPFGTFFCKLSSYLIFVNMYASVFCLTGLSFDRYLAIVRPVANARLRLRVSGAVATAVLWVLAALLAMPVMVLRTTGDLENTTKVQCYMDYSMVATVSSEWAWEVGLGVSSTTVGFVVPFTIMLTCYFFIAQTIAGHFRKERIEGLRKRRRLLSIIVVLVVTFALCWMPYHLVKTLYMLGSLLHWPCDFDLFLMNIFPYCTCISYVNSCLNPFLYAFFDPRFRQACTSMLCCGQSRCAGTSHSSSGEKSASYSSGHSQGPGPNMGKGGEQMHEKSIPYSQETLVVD
# Method in brief: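 Membranes from CHO cells stably expressing human APJ were incubated with 0.2 nM [35S]GTPγS and ligands for 90 min at RT in 20 mM HEPES pH 7.5, 5 mM MgCl2, 200 mM NaCl, 3 μM GDP, 0.1% BSA with WGA PS beads. Nonspecific binding was set with 100 μM GTPγS. EC50 came from non-linear regression.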
# heart failure rat model = test: In vivo cardiac contractility in heart failure (MI) rat model; details: heart failure rats (LAD ligation), acute administration for 30 min
# Experimental: Evidence for Improvement in Cardiac Contractility In Vivo in Heart Failure Rat Model
# Based on the ex vivo findings in isolated heart assay, APJ agonists were dosed in vivo to investigate the translation of cardiac contractility in in vivo settings. Male Lewis rats (Charles River, USA) at 2-3 months of age were used for the study. Heart failure was induced by permanent ligation of the left descending coronary artery which results in injury to the heart with an ejection fraction of <35%. APJ agonists were administered dose dependently acutely for a period of 30 min. Administration of example compounds lead to an increase in cardiac contractility as measured by dP/dtmax (derivative of left ventricular pressure) (Table 27).
Compound,Isolated Heart Assay dP/dtmax (%) [3],Isolated Heart Assay dP/dtmin (%) [3],EC50 (APJ receptor),MI Rat Model dP/dtmax (%) (heart failure rat model),other results
"C[C@H](CS)C(=O)N1CCC[C@H]1C(=O)O [Captopril, captopril, reference compound]",,,,,contractility or ejection fraction [1]: does not show a marked improvement
CCCCc1nc(Cl)c(CO)n1Cc1ccc(-c2ccccc2-c2nn[nH]n2)cc1 [losartan],,,,,left ventricular (LV) developed pressure (DevP) ([2]; compared with control (DMSO)): no impact on developed pressure; left ventricular (LV) systolic pressure (Sys) ([2]; compared with control (DMSO)): no impact on systolic pressure; left ventricular dP/dtmax (cardiac contractility) [2]: no impact on cardiac contraction; left ventricular dP/dtmin (cardiac relaxation) [2]: no impact on cardiac relaxation; cardiac contraction (dp/dtmax) (isolated rat heart): did not have any impact; cardiac relaxation (dp/dtmin) (isolated rat heart): did not have any impact; developed pressure (DevP) (isolated rat heart): did not have any impact; systolic pressure (Sys) (isolated rat heart): did not have any impact
"COc1cccc(OC)c1-n1c(NS(=O)(=O)[C@H](C)Cc2ccc(Cl)cc2)nnc1-c1ccco1 (single isomer, unassigned) [Example 205.0, (2R)-1-(4-chlorophenyl)-N-(4-(2,6-dimethoxyphenyl)-5-(2-furanyl)-4H-1,2,4-triazol-3-yl)-2-propanesulfonamide or (2S)-1-(4-chlorophenyl)-N-(4-(2,6-dimethoxyphenyl)-5-(2-furanyl)-4H-1,2,4-triazol-3-yl)-2-propanesulfonamide]",18.8%,20.5%,2.3 nM,,
"COc1cccc(OC)c1-n1c(NS(=O)(=O)[C@@H](C)[C@H](O)c2ncc(F)cn2)nnc1-c1ccc(C)o1 [Example 115.0, (1R,2S)-N-(4-(2,6-dimethoxyphenyl)-5-(5-methylfuran-2-yl)-4H-1,2,4-triazol-3-yl)-1-(5-fluoropyrimidin-2-yl)-1-hydroxypropane-2-sulfonamide]",32.6%,34.7%,0.2 nM,30%,
"COc1cccc(OC)c1-n1c(NS(=O)(=O)CCc2ccc(F)cn2)nnc1-c1ccco1 [Example 41.0, N-(4-(2,6-dimethoxyphenyl)-5-(2-furanyl)-4H-1,2,4-triazol-3-yl)-2-(5-fluoro-2-pyridinyl)ethanesulfonamide]",22.1%,22.7%,,,
"COc1cccc(OC)c1-n1c(NS(=O)(=O)CCN2C(=O)N(C)CC[C@@H]2C)nnc1-c1ccc(C)o1 (single isomer, unassigned) [Example 204.0, N-(4-(2,6-Dimethoxyphenyl)-5-(5-methyl-2-furanyl)-4H-1,2,4-triazol-3-yl)-2-((6S)-3,6-dimethyl-2-oxotetrahydro-1 (2H)-pyrimidinyl)ethanesulfonamide ethanesulfonamide or N-(4-(2,6-dimethoxyphenyl)-5-(5-methyl-2-furanyl)-4H-1,2,4-triazol-3-yl)-2-((6R)-3,6-dimethyl-2-oxotetrahydro-1(2H)-pyrimidinyl)ethanesulfonamide]",24.6%,29.0%,0.26 nM,No effect,
"COc1cccc(OC)c1-n1c(NS(=O)(=O)[C@@H](C)Cc2ncc(F)cn2)nnc1-c1ccc(C)o1 (single isomer, unassigned) [Example 108.0, (2S)—N-(4-(2,6-Dimethoxyphenyl)-5-(5-methyl-2-furanyl)-4H-1,2,4-triazol-3-yl)-1-(5-fluoro-2-pyrimidinyl)-2-propanesulfonamide or (2R)—N-(4-(2,6-dimethoxyphenyl)-5-(5-methyl-2-furanyl)-4H-1,2,4-triazol-3-yl)-1-(5-fluoro-2-pyrimidinyl)-2-propanesulfonamide]",38.8%,30.1%,0.25 nM,,
COc1cccc(OC)c1-n1c(NS(=O)(=O)[C@@H](C)[C@H](OC)c2ncc(C)cn2)nnc1-c1ccc(C)o1 [Example 261.0],34.5%,53.8%,0.13 nM,30%,
"COc1cccc(OC)c1-n1c(NS(=O)(=O)CCc2ccc(F)cc2C#N)nnc1-c1ccco1 [Example 210.0, 2-(2-Cyano-4-fluorophenyl)-N-(4-(2,6-dimethoxyphenyl)-5-(2-furanyl)-4H-1,2,4-triazol-3-yl)ethanesulfonamide]",25.9%,34.0%,3.2 nM,95.6%,left ventricular dP/dtmax (cardiac contractility) [2]: increases load independent cardiac contractility; left ventricular dP/dtmin (cardiac relaxation) [2]: increases load independent cardiac relaxation
"COc1cccc(OC)c1-n1c(NS(=O)(=O)[C@@H](C)Cc2ncc(F)cn2)nnc1-c1ccco1 (single isomer, unassigned) [Example 51.0, (2S)—N-(4-(2,6-Dimethoxyphenyl)-5-(2-furanyl)-4H-1,2,4-triazol-3-yl)-1-(5-fluoro-2-pyrimidinyl)-2-propanesulfonamide or (2R)—N-(4-(2,6-dimethoxyphenyl)-5-(2-furanyl)-4H-1,2,4-triazol-3-yl)-1-(5-fluoro-2-pyrimidinyl)-2-propanesulfonamide]",40.6%,33.8%,1 nM,38%,
"COc1cccc(OC)c1-n1c(NS(=O)(=O)CCc2ncc(C)cn2)nnc1-c1ccc(C)o1 [Example 26.0, N-(4-(2,6-dimethoxyphenyl)-5-(5-methyl-2-furanyl)-4H-1,2,4-triazol-3-yl)-2-(5-methyl-2-pyrimidinyl)ethanesulfonamide]",10.20%,11.1%,0.42 nM,58%,
"COc1cccc(OC)c1-n1c(NS(=O)(=O)CCc2ccc(Cl)cc2)nnc1-c1ccco1 [Example 111.0, 2-(4-Chlorophenyl)-N-(4-(2,6-dimethoxyphenyl)-5-(furan-2-yl)-4H-1,2,4-triazol-3-yl)ethanesulfonamide]",19.5%,24.9%,7.8 nM,97%,
